Reference: publication PMC11838736 (2025)

System: Doxorubicin aptamer (DNA, aptamer) ACCATCTGTGTAAGGGGTAAGGGGTGGT
Experiment: electrochemical aptamer-based sensor, square-wave voltammetry (KDM), Hill fit
Settings: 37 °C; in serum; apparent; immobilised aptamer; 8 devices

- Kd: 5 µM
SMILES: COc1cccc2c1C(=O)c1c(O)c3c(c(O)c1C2=O)C[C@@](O)(C(=O)CO)C[C@@H]3O[C@H]1C[C@H](N)[C@H](O)[C@H](C)O1
